This is an account of results in patent publication US20100056636A1, “N-Substituted-P-Menthane-3-Carboxamide and Uses Thereof” (priority 2006, published 2010).

Series [1] deals with panel of flavourists. Nature of the series: Comparative sensorial evaluation: aqueous solutions tasted by a panel of flavourists. Type of series: in vivo, human. The procedure:
Four aqueous solutions were prepared: A. […] 20 ppm WS-3 dissolved in solution A; and D. 2 ppm WS-3 dissolved in solution A. These solutions were tasted and evaluated by a panel of flavourists. […]

Series [2] concerns panel of experienced flavourists. Nature of the series: Hard boiled sweets containing cold receptor stimulant, evaluated by a panel of experienced flavourists. Type of series: in vivo, human. The settings on record: for strength of products A, B and C relative to each other: hard boiled sweets: A 50 ppm WS-3, B 5 ppm example 1, C 2.5 ppm example 2. The procedure: The sweets were prepared according to the following procedure. Sugar, water and glucose syrup are mixed and boiled till 146° C. The mix is cooled to 120° C., the cold receptor stimulant is added and carefully mixed in. The mix is poured on a cooling table and folded in and molded on a roller.
The sweets prepared were evaluated by a panel of experienced flavourists.

In series [3] the test system is small group of panelists. Nature of the series: Panel tasting of aqueous solutions: cooling intensity matched to a solution of menthol at 2 ppm. Type of series: in vivo, human. The conditions noted are these: tasted.
The conditions of series [4]: cited from earlier work.

As to `CC1CCC(C(C)C)C(C(=O)NCC(O)c2ccccc2)C1` (stereo not shown) [Example 1, 2-isopropyl-5-methyl-cyclohexanecarboxylic acid (2-hydroxy-2-phenylethyl)-amide], the “sensory description of solution” value in series [1] (Example 3, solution B: 2 ppm product of example 1 dissolved in 20 ppm menthol aqueous solution) was ““high initial cooling burst”, “long-lasting cooling”, “cold perception in whole mouth”, “some hotness””. Further, the “strength of solution B relative to solution D” value in series [1] (Example 3: 2 ppm product of example 1 versus 2 ppm WS-3, both in 20 ppm menthol solution) is on record as “much stronger”. In addition, the “strength of solution B relative to solution C” value in series [1] (Example 3: 2 ppm product of example 1 versus 20 ppm WS-3, both in 20 ppm menthol solution) is reported as “comparable strength”. Besides, the “location of effect and aftertaste” value in series [2] (Product B: 5 ppm product prepared in example 1) was “in the whole mouth and has a tingling-cool aftertaste”. Moreover, the “sensory description of hard boiled sweet” value in series [2] (Product B: 5 ppm product prepared in example 1, A = 50 ppm WS-3) was ““giving a cold sensation which is not irritating” and “much more longlasting than A””. Also, the “strength of products A, B and C relative to each other” value in series [2] was “comparable”. In series [3], the “Concentration with cooling intensity similar to or slightly higher than that of a solution of menthol at 2 ppm” value (shortened to “Concentration”) is 0.005 ppm.
Regarding `CC1CCC(C(C)C)C(C(=O)NCCc2ccccc2)C1` (stereo not shown) [Example 2, 2-isopropyl-5-methyl-cyclohexanecarboxylic acid phenylethyl-amide], the “sensory description of solution” value in series [1] (Example 4, solution B: 1 ppm product of example 2 dissolved in 20 ppm menthol aqueous solution) is recorded as ““cold perception with a pain sensation”, “aggressive, long-lasting cooling”, “almost noxious cold”, “slightly tingling””. Besides, the “strength of solution B relative to solution D” value in series [1] (Example 4: 1 ppm product of example 2 versus 2 ppm WS-3, both in 20 ppm menthol solution) was “much stronger”. In series [1] (Example 4: 1 ppm product of example 2 versus 20 ppm WS-3, both in 20 ppm menthol solution), the “strength of solution B relative to solution C” value was “comparable strength”. Moreover, the “sensory description of hard boiled sweet” value in series [2] (Product C: 2.5 ppm product prepared in example 2) is ““slow release cooling”, “giving a cold effect in the whole mouth”, “tingling pain sensation enhancing the cooling effect and “very longlasting””. In series [2], the “strength of products A, B and C relative to each other” value is “comparable”. In addition, the “Concentration” value in series [3] worked out at 0.2 ppm.
As to `CCOc1ccccc1CCNC(=O)C1CC(C)CCC1C(C)C` (stereo not shown) [Example 5, N-(2-ethoxyphenethyl)-2-isopropyl-5-methylcyclohexane-carboxamide], in series [3], the “Concentration” value was 0.002 ppm.
The same measure, in the same setting: the result for `CC1CCC(C(C)C)C(C(=O)N[C@H]2C[C@H]2c2ccccc2)C1` (stereo partly drawn) [Example 6, 2-isopropyl-5-methyl-N-((1S,2S)-2-phenylcyclopropyl)-cyclohexanecarboxamide] reads 0.1 ppm.
For `CCNC(=O)C1CC(C)CCC1C(C)C` (stereo not shown) [WS-3, N-Ethyl-p-menthane-3-carboxamide, reference compound], the “sensory description of solution, compared with solution B” value in series [1] (Example 3, solution C: 20 ppm WS-3 in 20 ppm menthol solution, B = 2 ppm product of example 1 in 20 ppm menthol) was ““more neutral cold perception than B”, “less aggressive cooling than B”, “less long-lasting cooling than B””; in series [1] (Example 3, solution D: 2 ppm WS-3 in 20 ppm menthol solution, B = 2 ppm product of example 1 in 20 ppm menthol) it was ““more neutral cold perception than B”, “less aggressive cooling than B”, “less long-lasting cooling than B””; in series [1] (Example 4, solution C: 20 ppm WS-3 in 20 ppm menthol solution, B = 1 ppm product of example 2 in 20 ppm menthol), ““more neutral cold perception than B”, “less aggressive cooling than B”, “less long-lasting cooling than B””; in series [1] (Example 4, solution D: 2 ppm WS-3 in 20 ppm menthol solution, B = 1 ppm product of example 2 in 20 ppm menthol), ““more neutral cold perception than B”, “less aggressive cooling than B”, “less long-lasting cooling than B””. Moreover, the “sensory description of hard boiled sweet” value in series [2] (Product A (control): 50 ppm WS-3) is ““giving coolness and a cold perception” and “having an immediate cooling effect” and “not longlasting””. The “feeling in the throat” value in series [2] (Product A: hard boiled sweet, dosage of 50 ppm WS-3) was “irritating feeling in the throat”. In series [2], the “strength of products A, B and C relative to each other” value is on record as “comparable”. The “Concentration” value in series [3] stood at 1.5 ppm.
For the compound `CC1CCC(C(C)C)C(O)C1` (stereo not shown) [menthol, reference compound], the “sensory description of solution” value in series [1] (solution A: 20 ppm menthol in water) was ““cooling””. Moreover, the “Concentration” value in series [3] came to 2.0 ppm.
On to “Ethyl 3-(p-menthane-3-carboxamido)acetate [(1R,3R,4S)-WS-5]”, for which the “perceived cooling relative to WS-3” value in series [4] (reported in US Patent Application No. 20050222256) was 2.5-3.0 times.
For the compound “Ethyl 3-(p-menthane-3-carboxamido)acetate [WS-5]”, the “coolness relative to WS-3” value in series [4] (known) is listed as “significantly cooler than WS-3”.
“N-(3,4-dimethylphenethyl)-2-isopropyl-5-ethylcyclo-hexanecarboxamide [Example 7]”: the “Concentration” value in series [3] was found to be 0.002 ppm.
